The test system of assay [1] is human peripheral blood pan T cells. Put plainly: IFNγ and IL-2 analysis of human peripheral pan T cells. Format: cell-based. To be noted: T-cell, CD3/CD28 bead stimulation, 100 nM Prostaglandin E2, 24 hr. How it is done:
IFNγ and IL-2 Analysis of Human Peripheral Pan T Cells
Human peripheral blood pan T cells were purchased from STEMCELL™ Technologies Inc. Human peripheral blood pan T cells were thawed and suspended in DMEM media (10% FBS and 10 Penicillin/Streptomycin). 8×10^4 T cells were seeded in 96-well plate and incubated with various concentration of compounds and 100 nM Prostaglandin E2 for 1 hr. T cells were stimulated with Dynabeads Human T-Activator CD3/CD28 (Life Technologies) at a 1:3 cells: beads ratio. […] Data were analyzed with an MESO Quickplex SQ120 (Mesoscale Discovery).
In Table 3, the values represent + for >1000 nM, ++ 200-1,000 nM, +++ for <200 nM and − for not determined.

Assay [2] concerns the target recombinant human HPK1 (Homo sapiens (Human), UniProt Q92918). Briefly: HPK1 kinase assay (ADP-Glo). Format: biochemical. To be noted: 25 μM ATP, MBP substrate. The procedure, abridged:
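Activity was read as ADP formed, detected by ADP-Glo luminescence after the reaction of 5 ng recombinant human HPK1 with MBP and ATP (stocks 0.5 μg/μl and 25 μM) for 40 min at 30 °C. Buffer was Tris pH 7.5 with MgCl2, BSA and DTT, with compound in 0.5% DMSO. IC50 came from inhibition curves.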

Where [3] appears, read: IFNγ secretion, read-out: IFNγ (EC50).
Setting [4] is: IL-2 secretion, read-out: IL-2 (EC50).

pEC50, pIC50: −log10 of the molar value. Like-named read-outs stand apart in the source and are kept apart here.

Chain of recombinant human HPK1 (Q92918 whole entry): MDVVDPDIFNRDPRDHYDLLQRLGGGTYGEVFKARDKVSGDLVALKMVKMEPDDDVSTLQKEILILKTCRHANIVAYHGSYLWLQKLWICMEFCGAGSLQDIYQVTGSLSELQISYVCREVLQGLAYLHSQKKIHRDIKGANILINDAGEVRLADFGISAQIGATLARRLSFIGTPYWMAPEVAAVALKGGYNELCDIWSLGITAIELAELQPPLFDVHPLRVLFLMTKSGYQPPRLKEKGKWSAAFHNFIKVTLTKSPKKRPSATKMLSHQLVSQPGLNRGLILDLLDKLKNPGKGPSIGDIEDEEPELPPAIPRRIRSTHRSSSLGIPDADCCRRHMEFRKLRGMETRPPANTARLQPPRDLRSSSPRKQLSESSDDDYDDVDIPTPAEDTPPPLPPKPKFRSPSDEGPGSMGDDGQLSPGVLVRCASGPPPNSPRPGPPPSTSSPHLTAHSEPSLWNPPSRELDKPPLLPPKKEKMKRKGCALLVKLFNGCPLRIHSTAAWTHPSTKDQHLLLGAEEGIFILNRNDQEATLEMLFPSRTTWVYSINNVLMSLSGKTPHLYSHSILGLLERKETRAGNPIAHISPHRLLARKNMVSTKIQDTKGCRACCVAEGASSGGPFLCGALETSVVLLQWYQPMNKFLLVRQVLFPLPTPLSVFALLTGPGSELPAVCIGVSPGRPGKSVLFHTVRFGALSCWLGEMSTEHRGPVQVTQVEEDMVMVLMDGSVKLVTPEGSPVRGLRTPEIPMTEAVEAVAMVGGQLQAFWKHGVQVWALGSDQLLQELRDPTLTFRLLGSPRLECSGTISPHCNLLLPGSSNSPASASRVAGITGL

As for `CC(=O)N(C)c1c(F)c(Cl)c(-c2ccc3nc(NC(=O)[C@@H]4C[C@@H]4F)sc3c2)c2cn[nH]c12` [Example 123, (1S,2S)-N-(6-(5-chloro-6-fluoro-7-(N-methylacetamido)-1H-indazol-4-yl)benzo[d]thiazol-2-yl)-2-fluorocyclopropane-1-carboxamide], the pEC50 in assay [1] (setting [3]) is 6.00 to 6.70; in assay [1] (setting [4]) it was less than 6.00. The pIC50 in assay [2] was more than 7.00.
For the compound `CN(C)C(=O)c1c(F)c(Cl)c(-c2ccc3nc(NC(=O)[C@@H]4C[C@@H]4F)sc3c2)c2cn[nH]c12` [Example 125, 5-chloro-6-fluoro-4-(2-((1S,2S)-2-fluorocyclopropane-1-carboxamido)benzo[d]thiazol-6-yl)-N,N-dimethyl-1H-indazole-7-carboxamide], the pEC50 in assay [1] (setting [3]) is more than 6.70. In addition, in assay [2], the pIC50 is more than 7.00.
`Cc1c(F)c(C(=O)N(C)C)c2[nH]ncc2c1-c1ccc2nc(NC(=O)[C@@H]3C[C@@H]3F)sc2c1` [Example 134, 6-fluoro-4-(2-((1S,2S)-2-fluorocyclopropane-1-carboxamido)benzo[d]thiazol-6-yl)-N,N,5-trimethyl-1H-indazole-7-carboxamide]: the pEC50 in assay [1] (setting [3]) was more than 6.70; in assay [1] (setting [4]) it was less than 6.00. The pIC50 in assay [2] was more than 7.00.
The corresponding values for `CCc1c(F)cc2[nH]ncc2c1-c1ccc2nc(NC(=O)[C@@H]3C[C@@H]3F)sc2n1` [Example 152, (1S,2S)—N-(5-(5-ethyl-6-fluoro-1H-indazol-4-yl)thiazolo[5,4-b]pyridin-2-yl)-2-fluorocyclopropane-1-carboxamide] are 6.00 to 6.70, 6.00 to 6.70 and more than 7.00.
The corresponding values for `CSc1c(F)cc2[nH]ncc2c1-c1ccc2nc(NC(=O)[C@@H]3C[C@@H]3F)sc2n1` [Example 156, (1S,2S)-2-fluoro-N-(5-(6-fluoro-5-(methylthio)-1H-indazol-4-yl)thiazolo[5,4-b]pyridin-2-yl)cyclopropane-1-carboxamide] are 6.00 to 6.70, 6.00 to 6.70 and more than 7.00.
Consider `CCc1c(F)c(N(C)C)c2[nH]ncc2c1-c1ccc2nc(NC(=O)[C@@H]3C[C@@H]3F)sc2n1` [Example 161, (1S,2S)-N-(5-(7-(dimethylamino)-5-ethyl-6-fluoro-1H-indazol-4-yl)thiazolo[5,4-b]pyridin-2-yl)-2-fluorocyclopropane-1-carboxamide], for which the pEC50 in assay [1] (setting [3]) was 6.00 to 6.70. For the same compound, in assay [2], the pIC50 was more than 7.00.
Regarding `CCc1c(F)c(SC)c2[nH]ncc2c1-c1ccc2nc(NC(=O)[C@@H]3C[C@@H]3F)sc2n1` [Example 162, (1S,2S)-N-(5-(5-ethyl-6-fluoro-7-(methylthio)-1H-indazol-4-yl)thiazolo[5,4-b]pyridin-2-yl)-2-fluorocyclopropane-1-carboxamide], the pEC50 in assay [1] (setting [3]) is 6.00 to 6.70. Also, in assay [2], the pIC50 was more than 7.00.
Turning to `CCc1c(F)c(SCC(=O)NC)c2[nH]ncc2c1-c1ccc2nc(NC(=O)[C@@H]3C[C@@H]3F)sc2n1` [Example 167, (1S,2S)-N-(5-(5-ethyl-6-fluoro-7-((2-(methylamino)-2-oxoethyl)thio)-1H-indazol-4-yl)thiazolo[5,4-b]pyridin-2-yl)-2-fluorocyclopropane-1-carboxamide], the pEC50 in assay [1] (setting [3]) was 6.00 to 6.70; in assay [1] (setting [4]), less than 6.00. Further, the pIC50 in assay [2] was more than 7.00.
The corresponding values for `Cc1c(F)c(N(C)C)c2[nH]ncc2c1-c1ccc2nc(NC(=O)[C@@H]3C[C@@H]3F)sc2n1` [Example 169, (1S,2S)-N-(5-(7-(dimethylamino)-6-fluoro-5-methyl-1H-indazol-4-yl)thiazolo[5,4-b]pyridin-2-yl)-2-fluorocyclopropane-1-carboxamide] are 6.00 to 6.70, less than 6.00 and more than 7.00.
The corresponding values for `CSc1c(F)c(SC)c2[nH]ncc2c1-c1ccc2nc(NC(=O)[C@@H]3C[C@@H]3F)sc2n1` [Example 170, (1S,2S)-2-fluoro-N-(5-(6-fluoro-5,7-bis(methylthio)-1H-indazol-4-yl)thiazolo[5,4-b]pyridin-2-yl)cyclopropane-1-carboxamide] are 6.00 to 6.70, less than 6.00 and more than 7.00.
For the compound `CN(C)c1c(F)c(Cl)c(-c2ccc3nc(NC(=O)[C@@H]4C[C@@H]4F)sc3n2)c2cn[nH]c12` [Example 172, (1S,2S)-N-(5-(5-chloro-7-(dimethylamino)-6-fluoro-1H-indazol-4-yl)thiazolo[5,4-b]pyridin-2-yl)-2-fluorocyclopropane-1-carboxamide], the pEC50 in assay [1] (setting [3]) was 6.00 to 6.70. The pIC50 in assay [2] is more than 7.00.
For `CSc1c(F)c(Cl)c(-c2ccc3nc(NC(=O)[C@@H]4C[C@@H]4F)sc3n2)c2cn[nH]c12` [Example 174, (1S,2S)-N-(5-(5-chloro-6-fluoro-7-(methylthio)-1H-indazol-4-yl)thiazolo[5,4-b]pyridin-2-yl)-2-fluorocyclopropane-1-carboxamide], in that order: 6.00 to 6.70 and more than 7.00.
`CCOc1c(F)c(C)c(-c2ccc3nc(NC(=O)[C@@H]4C[C@@H]4F)sc3n2)c2cn[nH]c12` [Example 175, (1S,2S)-N-(5-(7-ethoxy-6-fluoro-5-methyl-1H-indazol-4-yl)thiazolo[5,4-b]pyridin-2-yl)-2-fluorocyclopropane-1-carboxamide]: in assay [1] (setting [3]), the pEC50 is more than 6.70. The pIC50 in assay [2] was more than 7.00.
The corresponding values for `CCOc1c(F)c(SC)c(-c2ccc3nc(NC(=O)[C@@H]4C[C@@H]4F)sc3n2)c2cn[nH]c12` [Example 184, (1S,2S)-N-(5-(7-ethoxy-6-fluoro-5-(methylthio)-1H-indazol-4-yl)thiazolo[5,4-b]pyridin-2-yl)-2-fluorocyclopropane-1-carboxamide] are more than 6.70 and more than 7.00.
Regarding `CN(C)C(=O)c1c(F)c(Cl)c(-c2ccc3nc(NC(=O)[C@@H]4C[C@@H]4F)sc3n2)c2cn[nH]c12` [Example 193, 5-chloro-6-fluoro-4-(2-((1S,2S)-2-fluorocyclopropane-1-carboxamido)thiazolo[5,4-b]pyridin-5-yl)-N,N-dimethyl-1H-indazole-7-carboxamide], the pEC50 is 6.00 to 6.70 in assay [1] (setting [3]) and less than 6.00 in assay [1] (setting [4]). In assay [2], the negative logarithm of the IC50 (pIC50) was more than 7.00.
On to `CSc1c(F)c(N(C)C)c2[nH]ncc2c1-c1ccc2nc(NC(=O)[C@@H]3C[C@@H]3F)sc2n1` [Example 194, (1S,2S)-N-(5-(7-(dimethylamino)-6-fluoro-5-(methylthio)-1H-indazol-4-yl)thiazolo[5,4-b]pyridin-2-yl)-2-fluorocyclopropane-1-carboxamide], for which, in assay [1] (setting [3]), the negative-log EC50 (pEC50) was 6.00 to 6.70. In assay [2], the pIC50 is more than 7.00.
`Cc1c(F)c(C)c2[nH]ncc2c1-c1ccc2nc(NC(=O)[C@@H]3C[C@@H]3F)sc2n1` [Example 199, (1S,2S)-2-fluoro-N-(5-(6-fluoro-5,7-dimethyl-1H-indazol-4-yl)thiazolo[5,4-b]pyridin-2-yl)cyclopropane-1-carboxamide]: in assay [1] (setting [3]), the pEC50 was 6.00 to 6.70. In assay [2], the negative-log IC50 (pIC50) is more than 7.00.
As for `CN(C)c1c(F)c(Cl)c(-c2ccc3nc(NC(=O)[C@@H]4C[C@@H]4F)cn3c2)c2cn[nH]c12` [Example 258, (1S,2S)—N-(6-(5-chloro-7-(dimethylamino)-6-fluoro-1H-indazol-4-yl)imidazo[1,2-a]pyridin-2-yl)-2-fluorocyclopropane-1-carboxamide], the pEC50 in assay [1] (setting [3]) was more than 6.70; in assay [1] (setting [4]), 6.00 to 6.70. For the same compound, in assay [2], the pIC50 was more than 7.00.
`CCc1c(F)c(N(C)C)c2[nH]ncc2c1-c1ccc2nc(NC(=O)[C@@H]3C[C@@H]3F)cn2c1` [Example 291, (1S,2S)-N-(6-(7-(dimethylamino)-5-ethyl-6-fluoro-1H-indazol-4-yl)imidazo[1,2-a]pyridin-2-yl)-2-fluorocyclopropane-1-carboxamide]: the pEC50 in assay [1] (setting [3]) is more than 6.70; in assay [1] (setting [4]) it was 6.00 to 6.70. In addition, the pIC50 in assay [2] is more than 7.00.
For the compound `CCc1c(F)c(SC)c2[nH]ncc2c1-c1ccc2nc(NC(=O)[C@@H]3C[C@@H]3F)cn2c1` [Example 293, (1S,2S)-N-(6-(5-ethyl-6-fluoro-7-(methylthio)-1H-indazol-4-yl)imidazo[1,2-a]pyridin-2-yl)-2-fluorocyclopropane-1-carboxamide], the pEC50 in assay [1] (setting [3]) is more than 6.70. In assay [2], the pIC50 was more than 7.00.
With `CSc1c(F)cc2[nH]ncc2c1-c1ccc2nc(NC(=O)[C@@H]3C[C@@H]3F)cn2c1` [Example 296, (1S,2S)-2-fluoro-N-(6-(6-fluoro-5-(methylthio)-1H-indazol-4-yl)imidazo[1,2-a]pyridin-2-yl)cyclopropane-1-carboxamide], the values for the pEC50 in assay [1] (setting [3]) and in assay [1] (setting [4]) were more than 6.70 and 6.00 to 6.70, respectively. In addition, in assay [2], the pIC50 was more than 7.00.
As for `CSc1c(F)c(SC)c2[nH]ncc2c1-c1ccc2nc(NC(=O)[C@@H]3C[C@@H]3F)cn2c1` [Example 297, (1S,2S)-2-fluoro-N-(6-(6-fluoro-5,7-bis(methylthio)-1H-indazol-4-yl)imidazo[1,2-a]pyridin-2-yl)cyclopropane-1-carboxamide], the pEC50 in assay [1] (setting [3]) and in assay [1] (setting [4]) was more than 6.70 each time. Also, the pIC50 in assay [2] is more than 7.00.

Source of the values: patent US11649255B2, “Indazoles as hematopoietic progenitor kinase 1 (HPK1) inhibitors and methods using same” (1st Biotherapeutics, Inc., priority 2020, dated 2023).
